Active and inactive are the calls of the source.
Legend:
[1] = target: Voltage-gated inwardly rectifying potassium channel KCNH2 (Homo sapiens, UniProt Q12809); details: Potency;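 further: confirmatory quantitative high-throughput screen measuring inhibition of hERG channel activity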
[2] = target: ALK tyrosine kinase receptor (Homo sapiens, UniProt Q9UM73); format: functional;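 further: ALK tested as one member of a kinase panel screen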
[3] = target: Cyclin-dependent kinase 19 (Homo sapiens, UniProt Q9BWU1); experiment: Navigating the Kinome. Panel member name: CDC2L6; format: functional
[4] = target: Envelope glycoprotein gp160 (Human immunodeficiency virus 1, UniProt Q6QLK5); experiment: inhibitors of HIV fusion peptide binding, primary screen, biochemical, uHTS, fluorescence dequenching (AID 1986)
[5] = HIV-1 Env-mediated cell fusion inhibitors, dose response, CCR5-tropic Env (AID 2279); format: functional
Cysteine protease ATG4B = Cysteine protease ATG4B (Homo sapiens, UniProt Q9Y4P1); format: functional;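 further: Fluorescence-based dose-response confirmation assay measuring inhibition of ATG4B activity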
Phospholipase A2 = Phospholipase A2 (Homo sapiens, UniProt P04054); format: functional;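 further: confirmatory dose-response counterscreen on phospholipase A2, testing hits that came from an ultra-high-throughput screen for ATG4B inhibitors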
[6] = target: T1, Carboxy-terminal domain RNA polymerase II polypeptide A small phosphatase 1 (Homo sapiens, UniProt Q9GZU7); experiment: inhibitors of CTDSP1, concentration-response testing, biochemical assay, absorbance-based, actives from ultra-high-throughput screening (AID 540297); format: functional
T1 sequence (Q9GZU7 whole entry): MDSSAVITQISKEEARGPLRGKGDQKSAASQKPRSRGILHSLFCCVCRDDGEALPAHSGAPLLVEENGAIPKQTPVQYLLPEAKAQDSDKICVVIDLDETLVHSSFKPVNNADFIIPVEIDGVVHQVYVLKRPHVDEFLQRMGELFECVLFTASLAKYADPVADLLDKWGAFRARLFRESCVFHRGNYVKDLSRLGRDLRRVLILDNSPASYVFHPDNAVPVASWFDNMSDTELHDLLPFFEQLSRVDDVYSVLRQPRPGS

[7] = target: T2, Beta-2 adrenergic receptor (Homo sapiens, UniProt P07550); experiment: beta2AR agonists driving receptor internalization, dose response, cell-based, FAP fluorogen, flow cytometry, cherry pick 1 (AID 588763); format: functional
[8] = target: T2, Beta-2 adrenergic receptor; experiment: Dose response for HTS for Beta-2AR agonists via FAP method from Powderset3.; format: functional
Wee1-like protein kinase = Wee1-like protein kinase (Homo sapiens, UniProt P30291); experiment: Navigating the Kinome. Panel member name: WEE1; format: functional
[9] = target: Serine/threonine-protein kinase Chk2 (Homo sapiens, UniProt O96017); format: functional;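 further: CHEK2 entry within a kinome-wide screening panel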
[10] = target: Cyclin-dependent kinase 2 (Homo sapiens, UniProt P24941); format: functional;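 further: CDK2 measured as one member of a broad kinome profiling panel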
[11] = target: MAP kinase-activated protein kinase 3 (Homo sapiens, UniProt Q16644); format: functional;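 further: value comes from a kinome-wide profiling panel in which MAPKAPK3 is one of the panel members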
[12] = target: Casein kinase I isoform delta (Homo sapiens, UniProt P48730); format: functional;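 further: measured as one member (CSNK1D) of a kinome panel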
[13] = target: Cyclin-dependent kinase 5 (Homo sapiens, UniProt Q00535); format: functional;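 further: CDK5 measured as one member of a kinase profiling panel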
[14] = target: Cyclin-dependent kinase 1 (Homo sapiens, UniProt P06493); format: functional;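 further: Kinome-wide panel profiling, with the target listed as panel member CDC2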
[15] = target: Protein kinase C zeta type (Homo sapiens, UniProt Q05513); format: functional;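 further: measured as one member of a broad kinase profiling panel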
[16] = target: 3-phosphoinositide-dependent protein kinase 1 (Homo sapiens, UniProt O15530); format: functional;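 further: value comes from the Navigating the Kinome panel, PDPK1 member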
[17] = target: T3, Heat shock protein HSP 90-alpha (Homo sapiens, UniProt P07900); experiment: Luminescence-based dose response biochemical high throughput screening assay for inhibitors of the Heat Shock Protein 90 (HSP90). [Related pubchem assays: 1831 (Summary AID.), 1846 (Confirmation screen.), 1789 (Primary screen.)]
[18] = target: Beta-adrenergic receptor kinase 1 (Homo sapiens, UniProt P25098); experiment: aptamer displacement from bead-bound GRK2 – biochemical, cherry pick 1, bead flow cytometry, dose response (AID 504500)
Protein skinhead-1 = target: T4, Protein skinhead-1 (Caenorhabditis elegans, UniProt P34707); format: functional
T4 sequence (P34707 whole entry): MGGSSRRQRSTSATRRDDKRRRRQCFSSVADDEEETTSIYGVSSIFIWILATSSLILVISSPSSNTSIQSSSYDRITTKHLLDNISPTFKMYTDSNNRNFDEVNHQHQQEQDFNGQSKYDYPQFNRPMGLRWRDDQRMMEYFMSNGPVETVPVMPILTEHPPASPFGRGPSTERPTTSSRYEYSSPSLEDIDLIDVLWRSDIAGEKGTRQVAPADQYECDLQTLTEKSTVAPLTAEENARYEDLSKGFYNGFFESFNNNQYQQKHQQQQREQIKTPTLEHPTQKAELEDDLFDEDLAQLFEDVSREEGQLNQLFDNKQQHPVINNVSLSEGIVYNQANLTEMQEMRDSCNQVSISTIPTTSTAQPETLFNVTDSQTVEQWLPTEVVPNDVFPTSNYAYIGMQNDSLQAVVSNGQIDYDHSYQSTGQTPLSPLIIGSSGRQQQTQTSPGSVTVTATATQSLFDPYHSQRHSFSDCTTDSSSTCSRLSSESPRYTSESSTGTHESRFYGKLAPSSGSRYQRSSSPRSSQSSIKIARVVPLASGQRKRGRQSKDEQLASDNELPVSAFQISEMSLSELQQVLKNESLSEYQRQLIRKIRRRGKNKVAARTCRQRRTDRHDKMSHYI

[19] = target: T5, Glycogen synthase kinase-3 alpha (Homo sapiens, UniProt P49840); experiment: Inhibition of Human GSK-3 alpha Activity Measured in Biochemical System Using Microfluidics - 2063-06_Inhibitor_Dose_DryPowder_Activity. [Related pubchem assays (depositor defined):AID2709]
[20] = target: T6, Glycogen synthase kinase-3 beta (Homo sapiens, UniProt P49841); experiment: Inhibition of Human GSK-3 beta Activity Measured in Biochemical System Using Microfluidics - 2063-05_Inhibitor_Dose_DryPowder_Activity. [Related pubchem assays (depositor defined):AID2709]
[21] = target: C-C chemokine receptor type 6 (Homo sapiens, UniProt P51684); experiment: CCR6 receptor antagonists, dose response, cell-based, luminescent beta-arrestin readout (AID 504728); format: functional
Beta-galactosidase = Beta-galactosidase (Escherichia coli, UniProt Q8VNN2); experiment: beta-galactosidase enzyme inhibitors and activators, dose response, artefact control for CCR6 antagonist project, biochemical, E. coli enzyme, set 3 (AID 504712); format: functional
[22] = target: T3, Heat shock protein HSP 90-alpha; format: functional, organism-based
HSP90 = HSP90 (Plasmodium falciparum 3D7, UniProt Q8IL32); format: functional, organism-based
[23] = target: DNA dC->dU-editing enzyme APOBEC-3G (Homo sapiens, UniProt Q9HC16); experiment: APOBEC3G deaminase inhibitors, SAR follow-up, biochemical, fluorescence, single-stranded DNA substrate (AID 602136); format: functional; details: read-out: IC50_Mean
[24] = target: DNA dC->dU-editing enzyme APOBEC-3A (Homo sapiens, UniProt P31941); experiment: SAR analysis of small molecule inhibitors of APOBEC3A DNA Deaminase via a fluorescence-based single-stranded DNA deaminase assay.; format: functional; details: read-out: IC50_Mean
[25] = target: T5, Glycogen synthase kinase-3 alpha; experiment: Inhibition of Human GSK-3 alpha Activity Measured in Biochemical System Using Microfluidics - 2063-06_Inhibitor_Dose_DryPowder_Activity_Set2. [Related pubchem assays (depositor defined):AID2709]
[26] = target: T6, Glycogen synthase kinase-3 beta; experiment: Inhibition of Human GSK-3 beta Activity Measured in Biochemical System Using Microfluidics - 2063-05_Inhibitor_Dose_DryPowder_Activity_Set2. [Related pubchem assays (depositor defined):AID2709]
[27] = target: Cyclin-dependent kinase 5/CDK5 activator 1 (Homo sapiens, UniProt Q00535); experiment: CDK5-p25 kinase inhibitors, specificity check, dose response, selectivity assay for GSK-3 alpha inhibitor project, biochemical, microfluidic mobility shift, dry powder (AID 588430)
[28] = target: Serine/threonine-protein kinase pim-1 (Homo sapiens, UniProt P11309); format: functional
[29] = target: Cell division cycle 7-related protein kinase (Homo sapiens, UniProt O00311); format: functional;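 further: value obtained from a kinome-wide kinase panel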
[30] = target: Homeodomain-interacting protein kinase 2 (Homo sapiens, UniProt Q9H2X6); format: functional;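 further: measured within a kinome-wide kinase profiling panel, HIPK2 being one panel member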
[31] = target: Interleukin-1 receptor-associated kinase 4 (Homo sapiens, UniProt Q9NWZ3); format: functional
[32] = target: T6, Glycogen synthase kinase-3 beta; format: functional
[33] = target: cAMP-dependent protein kinase catalytic subunit alpha (Homo sapiens, UniProt P17612); format: functional
[34] = target: Mitogen-activated protein kinase kinase kinase kinase 4 (Homo sapiens, UniProt O95819); format: functional
Phospholipase D1 [35] = target: T7, Phospholipase D1 (Homo sapiens, UniProt Q13393); experiment: PLD1 inhibitor potency in cells, dose response (AID 602151); format: functional;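 further: cellular PLD1 assay in Calu-1 cells stimulated with PMA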
Phospholipase D2 [36] = target: T8, Phospholipase D2 (Homo sapiens, UniProt O14939); experiment: PLD2 inhibitor potency in cells, dose response (AID 602147); format: functional;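 further: cellular assay in HEK293 cells overexpressing GFP-tagged PLD2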
Phospholipase D1 [37] = target: T7, Phospholipase D1; experiment: PLD1 purified enzyme concentration response. [Related pubchem assays (depositor defined):AID588854]; format: functional
Phospholipase D2 [38] = target: T8, Phospholipase D2; experiment: PLD2 purified enzyme concentration response. [Related pubchem assays (depositor defined):AID588854]; format: functional

T6 sequence (P49841 whole entry): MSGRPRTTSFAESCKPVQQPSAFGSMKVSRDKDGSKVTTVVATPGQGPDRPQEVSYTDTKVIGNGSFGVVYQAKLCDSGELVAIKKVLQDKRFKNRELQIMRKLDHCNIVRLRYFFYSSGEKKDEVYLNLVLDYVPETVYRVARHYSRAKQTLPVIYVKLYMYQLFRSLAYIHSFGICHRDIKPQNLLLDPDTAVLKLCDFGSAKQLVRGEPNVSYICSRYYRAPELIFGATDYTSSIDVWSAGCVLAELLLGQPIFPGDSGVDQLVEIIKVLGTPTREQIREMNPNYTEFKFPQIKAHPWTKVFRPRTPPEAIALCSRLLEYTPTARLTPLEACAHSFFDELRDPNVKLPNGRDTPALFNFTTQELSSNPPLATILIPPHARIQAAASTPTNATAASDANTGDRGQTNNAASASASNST
T8 sequence (O14939 whole entry): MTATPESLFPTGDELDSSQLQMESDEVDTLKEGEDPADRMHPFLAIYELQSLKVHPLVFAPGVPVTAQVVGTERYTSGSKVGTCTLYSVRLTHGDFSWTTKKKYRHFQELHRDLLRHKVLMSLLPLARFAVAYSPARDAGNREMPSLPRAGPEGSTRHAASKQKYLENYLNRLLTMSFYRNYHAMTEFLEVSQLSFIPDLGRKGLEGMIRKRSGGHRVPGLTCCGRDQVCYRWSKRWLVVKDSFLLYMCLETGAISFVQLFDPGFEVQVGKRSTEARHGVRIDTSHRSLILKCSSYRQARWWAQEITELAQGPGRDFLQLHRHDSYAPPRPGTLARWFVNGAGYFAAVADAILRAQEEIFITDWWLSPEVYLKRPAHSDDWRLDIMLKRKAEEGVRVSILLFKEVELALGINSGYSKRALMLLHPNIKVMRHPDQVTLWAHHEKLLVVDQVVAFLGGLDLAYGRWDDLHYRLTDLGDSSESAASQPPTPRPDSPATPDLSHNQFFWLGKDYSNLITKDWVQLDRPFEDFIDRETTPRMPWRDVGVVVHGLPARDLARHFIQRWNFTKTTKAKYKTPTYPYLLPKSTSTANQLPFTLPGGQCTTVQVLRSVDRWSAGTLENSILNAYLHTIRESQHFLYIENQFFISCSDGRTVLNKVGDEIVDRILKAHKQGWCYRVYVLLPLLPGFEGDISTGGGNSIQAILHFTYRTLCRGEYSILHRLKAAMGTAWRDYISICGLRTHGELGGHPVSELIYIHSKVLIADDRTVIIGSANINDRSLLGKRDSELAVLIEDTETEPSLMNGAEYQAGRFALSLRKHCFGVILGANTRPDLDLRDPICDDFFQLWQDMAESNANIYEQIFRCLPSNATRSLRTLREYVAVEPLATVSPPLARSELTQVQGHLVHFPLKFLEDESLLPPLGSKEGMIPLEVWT
T5 sequence (P49840 whole entry): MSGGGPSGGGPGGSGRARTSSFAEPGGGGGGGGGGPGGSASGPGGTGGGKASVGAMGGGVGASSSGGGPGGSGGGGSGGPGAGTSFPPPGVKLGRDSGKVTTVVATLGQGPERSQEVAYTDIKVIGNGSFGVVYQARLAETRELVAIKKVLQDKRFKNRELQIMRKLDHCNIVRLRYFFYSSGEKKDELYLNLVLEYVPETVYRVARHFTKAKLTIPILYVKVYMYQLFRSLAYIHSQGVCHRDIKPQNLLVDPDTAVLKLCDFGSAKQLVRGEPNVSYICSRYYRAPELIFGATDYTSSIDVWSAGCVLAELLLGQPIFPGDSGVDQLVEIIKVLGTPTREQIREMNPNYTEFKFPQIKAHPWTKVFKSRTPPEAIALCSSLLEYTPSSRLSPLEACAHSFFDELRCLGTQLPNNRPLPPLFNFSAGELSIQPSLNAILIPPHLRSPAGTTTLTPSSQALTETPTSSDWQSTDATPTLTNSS
T7 sequence (Q13393 whole entry): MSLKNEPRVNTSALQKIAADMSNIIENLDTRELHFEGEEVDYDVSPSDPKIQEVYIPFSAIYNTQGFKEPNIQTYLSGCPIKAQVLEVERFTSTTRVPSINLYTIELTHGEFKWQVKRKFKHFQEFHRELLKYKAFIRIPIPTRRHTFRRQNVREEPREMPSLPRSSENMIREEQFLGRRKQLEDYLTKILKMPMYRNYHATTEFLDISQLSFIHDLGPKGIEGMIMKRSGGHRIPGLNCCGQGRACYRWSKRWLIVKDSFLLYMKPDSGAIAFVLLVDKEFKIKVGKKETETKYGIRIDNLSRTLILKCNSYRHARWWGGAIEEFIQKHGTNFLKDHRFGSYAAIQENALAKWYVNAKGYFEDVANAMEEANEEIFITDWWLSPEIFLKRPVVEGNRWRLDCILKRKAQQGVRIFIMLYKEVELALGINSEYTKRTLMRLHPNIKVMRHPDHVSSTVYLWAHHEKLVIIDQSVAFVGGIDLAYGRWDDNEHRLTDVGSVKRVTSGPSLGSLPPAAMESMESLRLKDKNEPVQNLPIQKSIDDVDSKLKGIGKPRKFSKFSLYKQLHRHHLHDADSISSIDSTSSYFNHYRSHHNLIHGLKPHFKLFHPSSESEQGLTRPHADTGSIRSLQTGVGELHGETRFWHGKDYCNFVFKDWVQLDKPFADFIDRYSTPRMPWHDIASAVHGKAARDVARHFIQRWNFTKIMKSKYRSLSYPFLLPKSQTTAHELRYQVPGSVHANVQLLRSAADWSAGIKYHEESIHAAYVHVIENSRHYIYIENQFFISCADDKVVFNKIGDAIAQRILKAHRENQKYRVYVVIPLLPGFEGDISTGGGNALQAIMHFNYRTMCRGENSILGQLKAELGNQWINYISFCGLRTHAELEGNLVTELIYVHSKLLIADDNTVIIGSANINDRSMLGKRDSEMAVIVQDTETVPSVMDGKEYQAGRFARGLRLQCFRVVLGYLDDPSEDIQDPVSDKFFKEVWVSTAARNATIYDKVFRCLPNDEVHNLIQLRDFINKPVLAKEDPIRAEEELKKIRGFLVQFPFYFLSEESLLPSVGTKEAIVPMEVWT
T2 sequence (P07550 whole entry): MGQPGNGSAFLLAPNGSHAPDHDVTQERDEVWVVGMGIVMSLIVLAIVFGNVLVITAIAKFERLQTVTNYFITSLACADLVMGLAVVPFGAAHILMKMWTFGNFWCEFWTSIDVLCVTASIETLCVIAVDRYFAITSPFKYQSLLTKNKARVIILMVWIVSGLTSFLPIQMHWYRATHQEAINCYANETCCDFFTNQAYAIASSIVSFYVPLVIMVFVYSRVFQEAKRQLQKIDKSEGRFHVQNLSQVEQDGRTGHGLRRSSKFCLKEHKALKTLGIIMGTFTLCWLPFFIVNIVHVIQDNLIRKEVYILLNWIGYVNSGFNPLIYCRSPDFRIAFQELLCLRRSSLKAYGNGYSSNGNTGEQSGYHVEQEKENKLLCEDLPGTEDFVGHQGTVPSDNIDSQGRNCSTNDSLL
Chain of ALK tyrosine kinase receptor (Q9UM73 whole entry): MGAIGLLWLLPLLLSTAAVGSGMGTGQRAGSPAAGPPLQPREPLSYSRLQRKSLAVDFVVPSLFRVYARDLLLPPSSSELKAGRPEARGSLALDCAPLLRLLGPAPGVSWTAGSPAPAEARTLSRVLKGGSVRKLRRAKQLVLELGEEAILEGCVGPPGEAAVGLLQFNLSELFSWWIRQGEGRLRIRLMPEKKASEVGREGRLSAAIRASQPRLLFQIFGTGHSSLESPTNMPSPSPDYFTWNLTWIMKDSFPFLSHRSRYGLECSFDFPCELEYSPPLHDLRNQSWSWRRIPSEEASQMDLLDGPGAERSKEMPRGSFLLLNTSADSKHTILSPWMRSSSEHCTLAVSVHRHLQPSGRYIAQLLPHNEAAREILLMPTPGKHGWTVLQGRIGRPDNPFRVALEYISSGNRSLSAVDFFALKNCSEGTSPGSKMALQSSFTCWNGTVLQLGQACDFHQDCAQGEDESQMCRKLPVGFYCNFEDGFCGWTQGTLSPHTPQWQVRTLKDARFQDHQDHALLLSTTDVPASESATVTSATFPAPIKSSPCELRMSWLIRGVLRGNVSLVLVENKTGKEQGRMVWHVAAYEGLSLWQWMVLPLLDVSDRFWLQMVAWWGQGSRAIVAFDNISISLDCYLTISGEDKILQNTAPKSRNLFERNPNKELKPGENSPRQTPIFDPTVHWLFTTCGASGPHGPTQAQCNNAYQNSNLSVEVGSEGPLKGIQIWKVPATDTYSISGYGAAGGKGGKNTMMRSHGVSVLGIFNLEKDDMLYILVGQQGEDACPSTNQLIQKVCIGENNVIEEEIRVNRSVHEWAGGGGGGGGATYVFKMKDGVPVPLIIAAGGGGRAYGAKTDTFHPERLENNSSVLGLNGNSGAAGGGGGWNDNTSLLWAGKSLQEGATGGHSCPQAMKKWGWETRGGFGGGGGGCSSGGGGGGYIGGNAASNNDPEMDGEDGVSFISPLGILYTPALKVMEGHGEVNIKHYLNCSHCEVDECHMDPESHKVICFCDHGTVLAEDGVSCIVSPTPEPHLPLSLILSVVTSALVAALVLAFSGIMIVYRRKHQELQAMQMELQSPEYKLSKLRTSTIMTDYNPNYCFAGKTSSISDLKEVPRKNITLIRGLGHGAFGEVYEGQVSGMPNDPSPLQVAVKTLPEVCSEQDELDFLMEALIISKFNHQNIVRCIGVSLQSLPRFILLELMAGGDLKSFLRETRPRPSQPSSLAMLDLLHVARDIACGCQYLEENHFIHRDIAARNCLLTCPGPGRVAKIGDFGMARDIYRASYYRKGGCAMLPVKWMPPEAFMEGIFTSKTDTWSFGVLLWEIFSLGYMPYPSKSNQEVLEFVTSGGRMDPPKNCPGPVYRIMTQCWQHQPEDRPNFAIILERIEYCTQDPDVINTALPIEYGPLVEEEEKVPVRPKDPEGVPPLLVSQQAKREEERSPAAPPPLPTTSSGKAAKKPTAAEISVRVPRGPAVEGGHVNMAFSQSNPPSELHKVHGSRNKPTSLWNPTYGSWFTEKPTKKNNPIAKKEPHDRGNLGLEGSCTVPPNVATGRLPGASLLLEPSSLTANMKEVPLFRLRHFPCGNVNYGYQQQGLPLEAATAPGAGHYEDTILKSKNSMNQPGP

SMILES: CC(=O)O[C@]1(C(C)=O)CC[C@H]2[C@@H]3C=C(Cl)C4=CC(=O)[C@@H]5C[C@H]5[C@]4(C)[C@H]3CC[C@@]21C
- AC50 [1]: 35.5 µM (inconclusive)

SMILES: COc1ccccc1Nc1nc(Nc2cnn(C)c2)ncc1Br
- Ki [2]: 1 µM (active)
- Ki [3]: 5.01 µM (active)

SMILES: CCOc1cc(/C=C2\SC(=O)N(CC(=O)Nc3ccccc3F)C2=O)cc([N+](=O)[O-])c1O
- IC50 [4]: 26.9 µM (active)
- IC50 [5]: 43.6 µM (active)
- IC50 (Cysteine protease ATG4B): 9.16 µM (active)
- IC50 (Phospholipase A2): 7.23 µM (active)
- IC50 [6]: 9.89 µM (active)

SMILES: Cc1ccc(NC(=O)C(c2ccc(Cl)cc2)N2CCOCC2)cc1 (stereo not given)
- EC50 [7]: 2.18 µM (active)
- EC50 [8]: 1.51 µM (active)

SMILES: CCN1CCN(c2ccc(Nc3ncc(C)c(Nc4ccc5[nH]ncc5c4)n3)cc2)CC1
- Ki [2]: 0.0398 µM (active)
- Ki (Wee1-like protein kinase): 0.0158 µM (active)

SMILES: Cc1c(NC2CCC(N)CC2)nc2ccnn2c1Nc1ccc(F)c(Cl)c1 (stereo not given)
- Ki [9]: 3.98 µM (active)
- Ki [10]: 7.94 µM (active)
- Ki [11]: 2 µM (active)
- Ki [12]: 3.98 µM (active)
- Ki [13]: 10 µM (active)
- Ki [14]: 7.94 µM (active)

SMILES: O=C(NCc1ccc(Br)cc1)c1cnn2c(-c3ccccc3)ccnc12
- Ki [15]: 2.51 µM (active)
- Ki [16]: 2.51 µM (active)

SMILES: Cc1cc2ccccc2n1CCNC(=O)c1cccs1
- IC50 [17]: 4.57 µM (active)
- EC50 [18]: 3.5 µM (active)
- IC50 (Protein skinhead-1): > 100 µM (inactive)

SMILES: COC(=O)c1ccc(CSc2nnc(-c3ccncc3)o2)cc1
- AC50 [19]: 1.67 µM (active)
- AC50 [20]: 0.395 µM (active)

SMILES: Oc1ccc(Cl)c2cccnc12 [CLOXYQUIN]
- IC50 [21]: > 66.6 µM (inactive)
- IC50 (Beta-galactosidase): > 66.6 µM (inactive)
- AC50 [22]: 6.15 µM (active)
- AC50 (HSP90): 8.36 µM (active)

SMILES: c1ccc2c(c1)OCC(c1nnc3c4c5c(sc4ncn13)CCCC5)O2 (stereo not given)
- IC50 [23]: > 99 µM (inactive)
- IC50 [24]: > 99 µM (inactive)

SMILES: Nc1nonc1-n1nnc(C(=O)N/N=C/c2ccccc2F)c1-c1cccs1
- AC50 [25]: 0.422 µM (active)
- AC50 [26]: 0.325 µM (active)
- AC50 [27]: 9.28 µM (active)

SMILES: OCCCCNc1cc(-c2c[nH]c3ncccc23)cc(Cl)n1
- Ki [28]: 0.501 µM (active)
- Ki [29]: 0.000794 µM (active)
- Ki [30]: 0.0251 µM (active)
- Ki [31]: 5.01 µM (active)
- Ki [32]: 0.1 µM (active)
- Ki [33]: 0.251 µM (active)
- Ki [34]: 0.00316 µM (active)

SMILES: C[C@@H](CN1CCC(n2c(=O)[nH]c3ccccc32)CC1)NC(=O)COc1ccccc1
- IC50 (Phospholipase D1 [35]): 0.002 µM (active)
- IC50 (Phospholipase D2 [36]): 3.8 µM (active)
- IC50 (Phospholipase D1 [37]): 0.057 µM (active)
- IC50 (Phospholipase D2 [38]): 5.8 µM (active)
